Experimental data taken from article PMC7738508, “A therapeutic combination of two small molecule toxin inhibitors provides broad preclinical efficacy against viper snakebite” (Nature Communications, 2020).
Values joined by “and” are separate entries in the source; they are usually repeats but may differ in a detail not shown here. Identical values can stand only once. Like-named read-outs stand apart in the source and are kept apart here.

How the values were obtained:
[1] = tested on: procoagulant activity of viper venoms (citrated bovine plasma); assay: plasma clotting assay, viper venoms overall; type: biochemical; details: range across all venoms; lower end of dimercaprol and marimastat ranges given as < 0.15; read-out: IC50, inhibition of procoagulant venom activity
Protocol: (§1) We used a previously developed plasma clotting assay[35] to measure venom-induced coagulation. Briefly, 100 ng of each venom was incubated at 37 °C for 30 min in the presence or absence of inhibitors (150 µM to 150 nM final concentrations). The final reaction consisted of 10 µl venom ± inhibitors in PBS, 20 µl 20 mM CaCl2, and 20 µl citrated bovine plasma (VWR). The samples were pipetted in triplicate into 384-well plates, and absorbance monitored at 595 nm for 2 h at 25 °C on an Omega FLUOstar instrument. We calculated the maximum clotting velocity of each of the curves as per clot waveform analysis, by calculating the maximum of the first derivative. The means of at least three independent experimental runs for each condition were plotted at each inhibitor concentration with SEMs.

[2] = tested on: procoagulant activity of Echis carinatus venom (citrated bovine plasma); assay: plasma clotting assay; type: biochemical; design: key: max of first derivative of A595 clot curve (max clotting velocity); details: Echis carinatus venom 100 ng, independent repeats
Protocol: as §1

[3] = tested on: coagulopathic activity of Daboia russelii venom (citrated bovine plasma); assay: plasma clotting assay; type: biochemical; design: key to maximum clotting velocity: max of first derivative of A595 clot curve (max clotting velocity); details: for maximum clotting velocity: Daboia russelii venom 100 ng, independent repeats
Protocol: as §1

[4] = tested on: procoagulant activity of Echis ocellatus venom (citrated bovine plasma); assay: plasma clotting assay; type: biochemical; details: Echis ocellatus venom 100 ng, independent repeats
Protocol: as §1

[5] = tested on: procoagulant activity of Bothrops asper venom (citrated bovine plasma); assay: plasma clotting assay; type: biochemical; details: Bothrops asper venom 100 ng, independent repeats
Protocol: as §1

[6] = tested on: SVMP bioactivity of the four active venoms (E. ocellatus, E. carinatus, B. asper, B. arietans); assay: in vitro kinetic fluorogenic SVMP assay, viper venoms overall; type: biochemical
Protocol: (§2) The SVMP assay measuring metalloproteinase activity and the plasma assay measuring coagulation in the presence or absence of venoms and inhibitors were performed as previously described. The SVMP assay kinetically measured cleavage of a quenched fluorogenic substrate (ES010, R&D Biosystems) by venom in the presence or absence of inhibitors.
(§3) Briefly, 10 µl of the substrate (supplied as a 6.2 mM stock) was used per 5 ml reaction buffer (150 mM NaCl, 50 mM Tris-Cl pH 7.5). Reactions consisted of 10 µl of venom ± inhibitors in PBS and 90 µl of substrate. Venoms were used at 1 µg/reaction and final inhibitor concentrations ranged from 150 µM to 150 nM. Samples were preincubated for 30 min at 37 °C and pipetted in triplicate into 384-well plates (Greiner). Thereafter, data was collected on an Omega FLUOstar (BMG Labtech) instrument at an excitation wavelength of 320 nm and emission wavelength of 405 nm at 25 °C for 1 h. The areas under the curve (AUCs) in the 0–40 min interval were calculated for each sample using MARS data analysis software v3.31 (BMG Labtech); this time point was chosen as the time where all fluorescence curves had reached a plateau (maximum fluorescence). For comparing venom-only samples, the means of at least three independent experimental runs for each condition, expressed as AUCs (n ≥ 3), were plotted at each inhibitor concentration with standard error of the mean (SEM). To determine inhibitor efficacy, the AUCs for each of the samples that consisted of venom + inhibitors were transformed and expressed as percentages of the venom-only sample (where the venom was 100%). The negative control (PBS-only) was also expressed relative to the venom, and the variation in background was presented as an interval delineated by the lowest and highest values in the PBS-only samples across concentrations and inhibitors for a specific venom.

[7] = tested on: Bothrops asper venom SVMP activity; assay: fluorogenic SVMP assay; type: biochemical; details: independent repeats
Protocol: as §2, §3

[8] = tested on: Bitis arietans venom SVMP activity; assay: fluorogenic SVMP assay; type: biochemical; details: independent repeats
Protocol: as §2, §3

[9] = tested on: Echis ocellatus venom SVMP activity; assay: fluorogenic SVMP assay; type: biochemical; details: independent repeats
Protocol: as §2, §3

[10] = tested on: Echis carinatus venom SVMP activity; assay: fluorogenic SVMP assay; type: biochemical; details: independent repeats
Protocol: as §2, §3

[11] = tested on: pro- and anticoagulant fractions of D. russelii venom; assay: nanofractionation with plasma coagulation assay; type: biochemical, Daboia russelii; details: nanofractionated D. russelii venom; inhibitor 0.0064 to 20 µM
Protocol: Fifty microlitres of venom solution (D. russelii; 1 mg/ml) was injected into a Shimadzu LC-2010 system with nanofractionation in parallel. Separation was performed on a Waters XBridge reversed-phase C18 column (250 × 4.6 mm^2 column with 3.5 μm pore-size) at 30 °C. The total flow rate of the mobile phase solution was 0.5 ml/min with eluent A (98% H2O, 2% acetonitrile [ACN], 0.1% formic acid [FA]) and eluent B (98% ACN, 2% H2O, 0.1% FA). Liquid chromatography gradients consisted of a linear increase of mobile phase B from 0 to 50% in 20 min, followed by a linear increase to 90% B in 4 min, then isocratic at 90% B for 5 min, after which the percentage of mobile phase B was decreased from 90 to 0% in 1 min, followed by 10 min at 0% B to re-equilibrate. The effluent was split in a 1:9 ratio of which the 10% fraction was sent to a Shimadzu SPD-M20A prominence diode array detector and the 90% fraction was directed to a nanofractionation collector which dispensed the fractions into transparent 384-well plates (F-bottom, rounded square well, polystyrene, without lid, clear, non-sterile; Greiner Bio One, Alphen aan den Rijn, The Netherlands) at a resolution of 6 s/well. The collector used was either a commercially available FractioMate^TM nanofractionator (SPARK-Holland & VU, Netherlands, Emmen & Amsterdam) controlled by FractioMator software v1.0 (Spark-Holland, The Netherlands, Emmen) or a modified Gilson 235P autosampler controlled by in-house written software Ariadne v1.8 (VU Amsterdam). The well plates with venom fractions were then dried overnight in a Christ Rotational Vacuum Concentrator (RVC 2 − 33 CD plus, Zalm en Kipp, Breukelen, The Netherlands) equipped with a cooling trap, and maintained at −80 °C during operation. The freeze-dried plates were then stored at −80 °C prior to bioassaying.
The final assay concentrations of the inhibitors tested in the assay were 20, 4, 0.8, 0.16, 0.032, and 0.0064 µM. The plates were then incubated for 30 min at room temperature, and during this time bovine plasma (Sterile Filtered, Biowest, Nuaille, France) was defrosted in a water bath and centrifuged for 4 min at 805 × g prior to use. […] The plate was then read immediately for absorbance kinetically for 100 min at 595 nm at 25 °C using a Varioskan Flash Multimode Reader (Thermo Fisher Scientific, Ermelo, The Netherlands). The obtained results were normalized by dividing the slope measured in each well by the median of all slope values across the plate, and the processed coagulation chromatograms were plotted to visualize very fast coagulation, medium increased coagulation and anticoagulation, as previously described.

E. ocellatus venom = assay: in vivo preincubation model of envenoming (i.v.); design: species or system CD-1 mice
Protocol: All animal experiments were conducted using protocols approved by the Animal Welfare and Ethical Review Boards of the Liverpool School of Tropical Medicine and the University of Liverpool, and performed in specific pathogen-free conditions under licensed approval (PPL #4003718 and #P5846F90) of the UK Home Office and in accordance with the Animal [Scientific Procedures] Act 1986 and institutional guidance on animal care. All experimental animals (18–20 g [4–5 weeks old], male, CD-1 mice, Charles River, UK) were housed in groups of five with environmental enrichment, water and food ad libitum and their health monitored daily during acclimatization. The experimental design was based upon 3R-refined WHO-recommended protocols[28],[41], with animals randomized and observers being blinded to the experimental condition. The median lethal doses (venom LD50) used for E. ocellatus (Nigeria), E. carinatus (India), B. asper (Costa Rica), D. russelii (Sri Lanka) and B. arietans (Nigeria) venoms were previously determined[25],[41],[44],[45].
All experimental doses were prepared to a volume of 200 µl in PBS and incubated at 37 °C for 30 min prior to their intravenous injection via the tail vein. Animals were monitored for 6 h, and euthanized via rising concentrations of CO2 upon observation of previously defined humane end points that are predicators of lethality (e.g., seizure, pulmonary distress, paralysis, hemorrhage)[28]. Deaths, time of death, and survivors were recorded; where death/time of death actually represents the implementation of euthanasia based on defined humane end points.
For all experimental animals described above, blood samples were collected via cardiac puncture immediately post-euthanasia. Plasma was separated by centrifugation at 400 × g for 10 min and stored at −80 °C. We assessed the levels of thrombin-antithrombin complexes (TAT) and soluble thrombomodulin using mouse ELISA Kits (ab137994 and ab209880, Abcam), following the manufacturer’s protocol. All available plasma samples (some were unobtainable via cardiac puncture due to extensive internal hemorrhage) were assessed if the time of death within the group varied, whereas three samples were randomly chosen if the time of death was the same (e.g., either very rapid death within 2 min, or survival until the end of the experiment [360 min or 24 h]). The resulting data was plotted as the median of duplicate measurements for each animal and is presented with standard deviations (SDs).

water solubility = type: physicochemical
[12] = cited from earlier work

## OCC(S)CS (stereo not drawn) [dimercaprol, 2,3-dimercapto-1-propanol]
[1]
  IC50: 150 to 3700 nM
[2]; inhibitor 15 µM
  maximum clotting velocity: 0.039 and 0.037 and 0.04491
[2]; inhibitor 150 µM
  maximum clotting velocity: 0.03967 and 0.03833 and 0.05167
[3]; inhibitor 15 µM
  maximum clotting velocity: 0.02868 and 0.02941 and 0.02393
[3]; inhibitor 150 µM
  maximum clotting velocity: 0.007941 and 0.0123
[4]; inhibitor 15 µM
  maximum clotting velocity: 0.031 and 0.039 and 0.025
[4]; inhibitor 150 µM
  maximum clotting velocity: 0.038 and 0.0465 and 0.041
[5]; inhibitor 15 µM
  maximum clotting velocity: 0.02441 and 0.02559 and 0.02164
[5]; inhibitor 150 µM
  maximum clotting velocity: 0.02412 and 0.03441 and 0.03148
[6]; across the active venoms
  lowest concentration generally effective / required to fully inhibit SVMP activities: 1.5 µM
[6]; range across the active venoms, read-out: IC50s, inhibition of venom SVMP activity
  IC50: 20 to 400 nM
[7]; inhibitor 15 µM
  SVMP activity, percentage of the venom-only sample: 36.4776% and 36.4971% and 29.4073%
[7]; inhibitor 150 µM
  SVMP activity, percentage of the venom-only sample: 26.9201% and 36.0411% and 27.8434%
[8]; inhibitor 15 µM
  SVMP activity, percentage of the venom-only sample: 16.3406% and 15.4164% and 15.5101%
[8]; inhibitor 150 µM
  SVMP activity, percentage of the venom-only sample: 15.3818% and 14.876% and 14.901%
[9]; inhibitor 15 µM
  SVMP activity, percentage of the venom-only sample: 17.6103% and 18.1155% and 16.6523%
[9]; inhibitor 150 µM
  SVMP activity, percentage of the venom-only sample: 15.563% and 16.8718% and 16.6432%
[10]; inhibitor 15 µM
  SVMP activity, percentage of the venom-only sample: 11.4563% and 14.5818% and 10.6976%
[10]; inhibitor 150 µM
  SVMP activity, percentage of the venom-only sample: 11.223% and 13.9151% and 10.3819%

## CCc1c(C(=O)C(N)=O)c2c(OCC(=O)O)cccc2n1Cc1ccccc1 [varespladib]
[3]; inhibitor 15 µM
  maximum clotting velocity: 0.09594 and 0.09681 and 0.08696
[3]; inhibitor 150 µM
  maximum clotting velocity: 0.1113 and 0.1116 and 0.1203
[11]
  inhibition of anticoagulant venom fractions: effectively inhibited
  inhibition of procoagulant venom fractions: some inhibitory effect against procoagulant venom toxins, but only at very high doses (20 µM)
E. ocellatus venom; 45 µg E. ocellatus venom preincubated with 60 µg of each drug, i.v., 6 h
  protection against venom-induced lethality: failed to prevent lethality over the full experimental time course
E. ocellatus venom; plasma after euthanasia, E. ocellatus venom + 60 µg of each drug, venom-only mean 1127.3, normal mice 10.2–15.9
  thrombin-antithrombin (TAT) levels, range in group: 472.7 to 649.9 ng/mL
Water solubility
  water solubility (words): water insolubility
[12]; Phase 1 and 2
  tolerability: well tolerated
[12]; Phase 2B, same daily dose, >300 patients for >6 months
  risk of major adverse cardiovascular events: no greater risk of major adverse cardiovascular events
[12]; Phase 3, acute coronary syndrome patients, 500 mg oral daily
  risk of myocardial infarction vs placebo: greater risk of myocardial infarction than those receiving placebo
[12]
  oral bioavailability: good oral bioavailability
[12]; delivered by iv infusion
  half-life: 5 h

## CNC(=O)[C@H](Cc1ccccc1)NC(=O)[C@H](CC(C)C)[C@H](CSc1cccs1)C(=O)NO [batimastat]
[1]
  IC50: < 150 nM
[2]; inhibitor 15 µM
  maximum clotting velocity: 0.03565 and 0.03449
[2]; inhibitor 150 µM
  maximum clotting velocity: 0.0287 and 0.02696 and 0.02803
[3]; D. russelii venom, high doses
  effect on clotting after complete neutralization of SVMP activity: revealed clear venom anticoagulant effects
[3]; inhibitor 15 µM
  maximum clotting velocity: 0.01373 and 0.01942 and 0.02131
Water solubility
  water solubility (words): water insolubility
Water solubility; listed as Batimastat
  water solubility (words): low water solubility
[6]; four active venoms, marimastat 150 nM to 150 µM, batimastat […] and 150 nM
  neutralization of SVMP bioactivity: equivalent efficacy to marimastat
